Columns and labels:
[1] = system: Vibrio harveyi BB886 quorum sensing based on homoserine lactones; assay: Quorum sensing assay (bioluminescence of reporter strain); assay type: cell-based; conditions: 10 μg/mL; V. harveyi BB886; bioluminescence at 5 h after inoculation
Experimental: To understand the effects of BFs on quorum sensing, the reporter strain Vibrio harveyi BB886 was used to monitor the quorum sensing based on homoserine lactones. Briefly, an overnight culture of this strain was diluted by 1:5000 in autoinducer bioassay medium with BFs supplemented at different concentrations. The bioluminescence was measured at 5 h after inoculation.

[2] = system: P. aeruginosa PAO1; assay: Effect on persister formation in subcultures (CFU after Cip treatment); assay type: cell-based, Pseudomonas aeruginosa
Experimental: A P. aerugionsa PAO1 overnight culture was sub-cultured into 6 tubes with 5 mL fresh LB medium in each with the optical density at 600 nm (OD600) adjusted to 0.05. Each tube contained different concentrations of BF8 (0, 5, 10, 30, 50 and 100 μg/mL) diluted from a 60 mg/mL stock solution. The amount of ethanol was adjusted to be the same for all samples to eliminate solvent effects. After 5 h of incubation, 2 mL sample from each tube was washed and plated on LB agar plates for counting colony forming units (“CFU”); while 3 mL of sample was added with 200 μg/mL Cip and incubated for 3.5 h to count the numbers of cells that remained as persisters.
To compare with the effects of sugars known to promote antibiotic uptake by persisters, the above experiment was repeated using 10 mM glucose and mannitol instead of BF8.

[3] = system: P. aeruginosa PAO1 persister cells; assay: Viability of isolated persister cells (CFU); assay type: cell-based, Pseudomonas aeruginosa; conditions: up to 2 μg/mL; 0.85% NaCl buffer
Experimental: (§1) Pseudomonas aeruginosa PAO1 was routinely grown in Luria-Bertani (LB) medium. To isolate persister cells, an overnight culture was incubated for 18 h at 37° C. with shaking at 200 rpm, washed twice with 0.85% NaCl buffer, resuspended in the same buffer and then treated with 200 μg/mL Cip for 3.5 h to lyse the regular cells. The remaining persister cells were then harvested by centrifugation at 13,200 rpm for 3 min at room temperature and then treated with or without furanones as described below.
(§2) To obtain persisters, 3 mL of overnight culture of P. aeruginosa PAO1 was incubated for 3.5 h with 200 μg/mL Cip to kill all regular cells. The remaining persisters were washed twice with and resuspended in 0.85% NaCl buffer with 1:50 dilution. Samples were taken immediately to count the CFUs of persisters. Then, each 5 mL of 0.85% NaCl buffer containing persister cells was treated for 3.5 h with 0, 0.1, 0.5, 1 and 2 μg/mL of BF8. The amount of ethanol was adjusted to be the same for all samples. CFUs of treated persister cells were counted to understand if BF8 has any effects on the viability of persister cells.

[4] = system: P. aeruginosa PAO1 persister cells; assay: Antibiotic (Cip) susceptibility of isolated persister cells; assay type: cell-based, Pseudomonas aeruginosa; conditions: for reverting antibiotic tolerance of persisters: different concentrations, 0.85% NaCl buffer, Cip
Experimental: as §1, §2
The persister cells treated with BF8 as described above were then treated again with 200 μg/mL Cip to understand if any persister cells restored susceptibility to Cip. The CFUs were counted as described above.

[5] = system: P. aeruginosa PAO1 persister cells; assay: DNA microarray analysis of gene expression in persister cells; assay type: cell-based, Pseudomonas aeruginosa; conditions: 1 μg/mL, 1 h
Experimental: Persister cells were harvested from a 100 mL 18-h culture of P. aeruginosa PAO1. The isolated persister cells were resuspended in 0.85% NaCl buffer supplemented with 1 μg/mL (3.7 μM) BF8 or with the same amount of ethanol (4.17 μL to eliminate the solvent effect as the control). After incubation at 37° C. for 1 h, cells were collected by centrifugation at 10,000 rpm for 5 minutes at 4° C., transferred to 2 mL pre-cooled microcentrifuge tubes and frozen in an ethanol-dry ice bath. The cell pellets were stored at −80° C. until RNA isolation.
The RNeasy Mini Kit (Qiagen) was used to isolate total RNA. First, the cells were lysed by beating at 4,800 oscillations/min using a mini-bead beater (Biospec Products Inc., Bartlesville, Okla.) with 0.5-mm glass beads, 900 uL RLT buffer and 1% 2-Mercaptoethanol. The total RNA was extracted following the manufacture's protocol with additional wash with RW1 buffer, RPE buffer and DNase treatment (RNase-Free DNase Set, Qiagen). The RNA samples were sent to the DNA microarray Facilities at SUNY Upstate Medical University for microarray hybridization.

## CC1=C(Br)/C(=C/Br)OC1=O [BF8]
[1]
  response of the reporter strain to homoserine lactones: completely eliminated
[2]; 100 μg/mL BF8, 5 h incubation, 200 μg/mL Cip
  cells persistent (retaining antibiotic tolerance) after treatment: 1.6%
[2]; 100 μg/mL, 5 h incubation in LB medium, 200 μg/mL Cip 3.5 h
  reduction of the number of persister cells formed compared to the furanone-free control: up to 100 times
[3]
  killing effects on persister cells (viability): did not exhibit any significant killing effects
[4]; 2 μg/mL, then 200 μg/mL Cip
  persister cells rendered sensitive to Cip: around 90%
[4]; 0.5, 1 and 2 μg/mL, then 200 μg/mL Cip
  susceptibility of persisters to Cip: more susceptible to Cip
[5]; gene PA0182 (3-ketoacyl-(acyl-carrier-protein) reductase)
  Expression Ratio PA0182: 97.1
[5]; gene PA0422 (hypothetical protein)
  Expression Ratio PA0422: 4.2
[5]; gene PA0565 (hypothetical protein)
  Expression Ratio PA0565: 12.8
[5]; gene PA0741 (hypothetical protein)
  Expression Ratio PA0741: 16.5
[5]; gene PA1127 (oxidoreductase)
  Expression Ratio PA1127: 3.4
[5]; gene PA1210 (hypothetical protein)
  Expression Ratio PA1210: 21
[5]; gene PA1285 (transcriptional regulator)
  Expression Ratio PA1285: 4.4
[5]; gene PA1334 (oxidoreductase)
  Expression Ratio PA1334: 227.6
[5]; gene PA1374 (hypothetical protein)
  Expression Ratio PA1374: 3.4
[5]; gene PA1470 (short chain dehydrogenase)
  Expression Ratio PA1470: 4.1
[5]; gene PA2196 (transcriptional regulator)
  Expression Ratio PA2196: 4.8
[5]; gene PA2378 (aldehyde dehydrogenase)
  Expression Ratio PA2378: 3.1
[5]; gene PA2535 (oxidoreductase)
  Expression Ratio PA2535: 9
[5]; gene PA2575 (hypothetical protein)
  Expression Ratio PA2575: 9.1
[5]; gene PA2580 (hypothetical protein)
  Expression Ratio PA2580: 8.3
[5]; gene PA2610 (hypothetical protein)
  Expression Ratio PA2610: 7.2
[5]; gene PA2691 (hypothetical protein)
  Expression Ratio PA2691: 3.7
[5]; gene PA2839 (hypothetical protein)
  Expression Ratio PA2839: 11
[5]; gene PA2931 (CifR)
  Expression Ratio PA2931: 11
[5]; gene PA2932_morB (morphinone reductase)
  Expression Ratio PA2932_morB: 64.9
[5]; gene PA3133 (transcriptional regulator)
  Expression Ratio PA3133: 3.5
[5]; gene PA3223_acpD (AzoR3, azoreductase 3)
  Expression Ratio PA3223_acpD: 4.8
[5]; gene PA3240 (hypothetical protein)
  Expression Ratio PA3240: 14.4
[5]; gene PA3523 (RND efflux membrane fusion protein precursor)
  Expression Ratio PA3523: 9.6
[5]; gene PA3920 (metal transporting P-type ATPase)
  Expression Ratio PA3920: 3.9
[5]; gene PA4167 (2,5-diketo-D-gluconate reductase B)
  Expression Ratio PA4167: 510.6
[5]; gene PA4173 (hypothetical protein)
  Expression Ratio PA4173: 36.7
[5]; gene PA4878 (transcriptional regulator)
  Expression Ratio PA4878: 4.2

## CC1=CC(=C(Br)Br)OC1=O [BF9]
[4]
  reverting antibiotic tolerance of persisters: revert antibiotic tolerance in a dose dependent manner

## O=C1OC(=C(Br)Br)C=C1C(Br)Br [BF10]
[4]
  reverting antibiotic tolerance of persisters: revert antibiotic tolerance in a dose dependent manner

## O=C1OC(=C(Br)Br)C=C1CBr [BF11]
[4]
  reverting antibiotic tolerance of persisters: revert antibiotic tolerance in a dose dependent manner

## CC1=C(Br)C(C(Br)Br)OC1=O (centres unmarked) [BF14]
[4]
  reverting antibiotic tolerance of persisters: revert antibiotic tolerance in a dose dependent manner
